Test results: patent publication US10550105B2 (Ribon Therapeutics Inc., priority 2018, dated 2020)

What follows are compounds tested against PARP7 (Homo sapiens (Human), UniProt Q7Z3E1) (assay: Enzymatic assay for inhibition of PARP7: TR-FRET displacement of biotinylated Probe A from the TIPARP active site). Settings: Table A-1.
Sequence of PARP7 (Q7Z3E1 whole entry): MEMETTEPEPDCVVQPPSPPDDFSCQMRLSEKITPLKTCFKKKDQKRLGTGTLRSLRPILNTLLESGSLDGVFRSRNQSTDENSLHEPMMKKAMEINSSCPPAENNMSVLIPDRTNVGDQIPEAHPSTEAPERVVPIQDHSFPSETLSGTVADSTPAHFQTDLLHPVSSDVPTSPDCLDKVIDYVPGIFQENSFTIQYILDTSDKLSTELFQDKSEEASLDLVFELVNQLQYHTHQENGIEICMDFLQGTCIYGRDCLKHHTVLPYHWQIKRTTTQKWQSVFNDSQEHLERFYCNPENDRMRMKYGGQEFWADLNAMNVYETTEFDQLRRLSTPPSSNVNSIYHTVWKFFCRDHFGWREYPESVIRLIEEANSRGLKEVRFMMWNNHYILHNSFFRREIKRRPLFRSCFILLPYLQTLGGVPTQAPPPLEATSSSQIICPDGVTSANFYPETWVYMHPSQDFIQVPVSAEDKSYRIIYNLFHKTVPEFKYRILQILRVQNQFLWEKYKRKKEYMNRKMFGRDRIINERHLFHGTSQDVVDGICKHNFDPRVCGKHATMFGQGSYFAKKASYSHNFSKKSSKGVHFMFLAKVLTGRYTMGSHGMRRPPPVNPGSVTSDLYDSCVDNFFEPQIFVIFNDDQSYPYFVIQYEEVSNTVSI
Type: binding
Outline: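 Compound dose-response series were incubated with TIPARP and biotinylated Probe A, with a final 30 min step at 25 °C. TR-FRET was read at 320 nm excitation, 615/665 nm emission and 90 μs delay, using the 665/615 ratio to measure complex formation. % inhibition was fitted with a floating or fixed (1) Hill coefficient.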
With `C[C@@H](COCCC(=O)N1CCN(c2ncc(C(F)(F)F)cn2)CC1)N(C)c1cn[nH]c(=O)c1C(F)(F)F` [Example 641, (S)-5-(Methyl(1-(3-oxo-3-(4-(5-(trifluoromethyl)pyrimidin-2-yl)piperazin-1-yl)propoxy)propan-2-yl)amino)-4-(trifluoromethyl)pyridazin-3(2H)-one] the IC50 was 100 to 1000 nM. `N#Cc1ccc(N2CCN(C(=O)CCOCC(CO)Nc3cn[nH]c(=O)c3C(F)(F)F)CC2)nc1` (stereo not shown) [Example 529, 6-[4-[3-(3-Hydroxy-2-[[6-oxo-5-(trifluoromethyl)-1,6-dihydropyridazin-4-yl]amino]propoxy)propanoyl]piperazin-1-yl]pyridine-3-carbonitrile] gave an IC50 of under 100 nM. For `O=C(c1cncc(OC[C@@H]2c3ccccc3CN2c2cn[nH]c(=O)c2C(F)(F)F)c1)N1CCN(c2ncc(C(F)(F)F)cn2)CC1` [Example 392, (S)-4-(Trifluoromethyl)-5-(1-(((5-(4-(5-(trifluoromethyl)pyrimidin-2-yl)piperazine-1-carbonyl)pyridin-3-yl)oxy)methyl)isoindolin-2-yl)pyridazin-3(2H)-one], the IC50 was under 100 nM. Compound `N#Cc1ccc(N2CCN(C(=O)C[C@H]3CC[C@H]([C@@H]4CCCN4c4cn[nH]c(=O)c4C(F)(F)F)O3)CC2)nc1` [Example 141D, 6-(4-[2-[(2R,5R)-5-[(2S)-1-[6-oxo-5-(trifluoromethyl)-1,6-dihydropyridazin-4-yl]pyrrolidin-2-yl]oxolan-2-yl]acetyl]piperazin-1-yl)pyridine-3-carbonitrile] has an IC50 of 100 to 1000 nM. Work on `Cc1c(OCCOCCC(=O)N2CCN(c3ccc(C#N)cn3)CC2)cn[nH]c1=O` [Example 551, 6-[4-(3-[2-[(5-Methyl-6-oxo-1,6-dihydropyridazin-4-yl)oxy]ethoxy]propanoyl)piperazin-1-yl]pyridine-3-carbonitrile] yielded an IC50 of under 100 nM. `C[C@H]1C[C@@H](COc2cccc(C(=O)N3CCN(c4ccc(C#N)cn4)CC3)c2)N(c2cn[nH]c(=O)c2C(F)(F)F)C1` [Example 70, 6-[4-[(3-[[(2S,4S)-4-methyl-1-[6-oxo-5-(trifluoromethyl)-1,6-dihydropyridazin-4-yl]pyrrolidin-2-yl]methoxy]phenyl)carbonyl]piperazin-1-yl]pyridine-3-carbonitrile] gave an IC50 of under 100 nM. `N#Cc1ccc(N2CCN(C(=O)C[C@@H]3CC[C@@H](COc4cn[nH]c(=O)c4C(F)(F)F)O3)CC2)nc1` (single isomer, unassigned) [Example 580 Isomer A] was tested, and the IC50 was 100 to 1000 nM. `O=C(c1cccc(OC[C@@H]2CCCN2c2cn[nH]c(=O)c2C(F)(F)F)c1)N1CCN(c2ccc(C(F)(F)F)cn2)CC1` [Example 440, (S)-4-(Trifluoromethyl)-5-(2-((3-(4-(5-(trifluoromethyl)pyridin-2-yl)piperazine-1-carbonyl)phenoxy)methyl)pyrrolidin-1-yl)pyridazin-3(2H)-one] showed an IC50 of under 100 nM. `COc1cc2c(cc1F)CN(c1cn[nH]c(=O)c1C(F)(F)F)C2` [Example 234, 5-(5-Fluoro-6-methoxyisoindolin-2-yl)-4-(trifluoromethyl)pyridazin-3(2H)-one] showed an IC50 of under 100 nM. With `COC[C@H](COCCC(=O)N1CCN(c2ncc(Cl)cn2)CC1)Oc1cn[nH]c(=O)c1C(F)(F)F` (single isomer, unassigned) the IC50 was 100 to 1000 nM. `C[C@@H](COc1cn[nH]c(=O)c1Cl)OCCC(=O)N1CCN(c2ncc(C(F)(F)F)cn2)CC1` [Example 578 Isomer B, (S)-4-Chloro-5-(2-(3-oxo-3-(4-(5-(trifluoromethyl)pyrimidin-2-yl)piperazin-1-yl)propoxy)propoxy)pyridazin-3(2H)-one] was tested, and the IC50 was under 100 nM. For `N#Cc1ccc(N2CCN(C(=O)C[C@@H]3CC[C@@H](COc4cn[nH]c(=O)c4C(F)(F)F)N3)CC2)nc1` [Example 639, 6-(4-(2-((2S,5S)-5-(((6-Oxo-5-(trifluoromethyl)-1,6-dihydropyridazin-4-yl)oxy)methyl)pyrrolidin-2-yl)acetyl)piprazin-1-yl)nicotinonitrile], the IC50 was at least 1000 nM. With `CN(CCC(=O)N1CCN(c2ccc(C#N)cn2)CC1)C[C@@H]1c2ccccc2CN1c1cn[nH]c(=O)c1C(F)(F)F` [Example 427, (S)-6-(4-(3-(Methyl((2-(6-oxo-5-(trifluoromethyl)-1,6-dihydropyridazin-4-yl)isoindolin-1-yl)methyl)amino)propanoyl)piperazin-1-yl)nicotinonitrile] the IC50 was under 100 nM. Work on `O=c1[nH]ncc(N2Cc3cccc(F)c3C2)c1C(F)(F)F` [Example 180, 5-(4-Fluoroisoindolin-2-yl)-4-(trifluoromethyl)pyridazin-3(2H)-one] yielded an IC50 of under 100 nM. Work on `O=c1[nH]ncc(N2Cc3cccc(OCCN4CCOCC4)c3C2)c1Cl` [Example 240, 4-Chloro-5-(4-(2-morpholinoethoxy)isoindolin-2-yl)pyridazin-3(2H)-one] yielded an IC50 of 100 to 1000 nM. Work on `N#Cc1ccc(N2CCN(C(=O)/C=C/COC[C@@H]3c4ccccc4CN3c3cn[nH]c(=O)c3C(F)(F)F)CC2)nc1` [Example 79 Isomer C, 6-[4-[(2E)-4-[[(1S)-2-[6-oxo-5-(trifluoromethyl)-1,6-dihydropyridazin-4-yl]-2,3-dihydro-1H-isoindol-1-yl]methoxy]but-2-enoyl]piperazin-1-yl]pyridine-3-carbonitrile] yielded an IC50 of under 100 nM. `C[C@@H](COC[C@@H](N)CC(=O)N1CCN(c2ncc(C(F)(F)F)cn2)CC1)Nc1cn[nH]c(=O)c1C(F)(F)F` (single isomer, unassigned) [Example 617 Isomer B] showed an IC50 of under 100 nM. Compound `O=C(C[C@@H]1CC[C@@H](CNc2cn[nH]c(=O)c2C(F)(F)F)O1)N1CCN(c2ccc(C(F)(F)F)cn2)CC1` (single isomer, unassigned) [Example 546 Isomer A] has an IC50 of under 100 nM. In the case of `O=C(c1cccc(OC[C@@H]2c3ccccc3CN2c2cn[nH]c(=O)c2C(F)(F)F)c1)N1CCN(c2ncc(C(F)(F)F)cn2)CC1` [Example 390, (S)-4-(Trifluoromethyl)-5-(1-((3-(4-(5-(trifluoromethyl)pyrimidin-2-yl)piperazine-1-carbonyl)phenoxy)methyl)isoindolin-2-yl)pyridazin-3(2H)-one], the IC50 is reported as under 100 nM. Work on `O=C(C[C@@H]1CC[C@H](COc2cn[nH]c(=O)c2Cl)O1)N1CCN(c2ncc(Cl)cn2)CC1` (single isomer, unassigned) [Example 566 Isomer D] yielded an IC50 of at least 1000 nM. Work on `N#Cc1ccc(N2CCN(C(=O)CCCCCOc3cn[nH]c(=O)c3C(F)(F)F)CC2)nc1` [Example 512, 6-[4-(6-[[6-Oxo-5-(trifluoromethyl)-1,6-dihydropyridazin-4-yl]oxy]hexanoyl)piperazin-1-yl]pyridine-3-carbonitrile] yielded an IC50 of under 100 nM. For `C[C@@H](CC(=O)N1CCN(c2ccc(C#N)cn2)CC1)OCCNc1cn[nH]c(=O)c1C(F)(F)F` [Example 528A], the IC50 was under 100 nM. In the case of `O=c1[nH]ncc(N2Cc3nccc(OC4CCNCC4)c3C2)c1C(F)(F)F` [Example 9, 5-[4-(piperidin-4-yloxy)-5H,6H,7H-pyrrolo[3,4-b]pyridin-6-yl]-4-(trifluoromethyl)-2,3-dihydropyridazin-3-one], the IC50 is reported as 100 to 1000 nM. In the case of `N#Cc1ccc(N2CCN(C(=O)c3cccc(OC[C@@H]4C[C@H](O)CN4c4cn[nH]c(=O)c4C(F)(F)F)c3)CC2)nc1` [Example 51], the IC50 is reported as under 100 nM. With `C[C@H](COc1cn[nH]c(=O)c1C(F)(F)F)OCCC(=O)N1CCN(c2ccc(Cl)cn2)CC1` (single isomer, unassigned) [Example 539 Isomer C] the IC50 was under 100 nM. Work on `NCC1c2ccccc2CN1c1cn[nH]c(=O)c1C(F)(F)F` (stereo not shown) [Example 275, 5-(1-(Aminomethyl)isoindolin-2-yl)-4-(trifluoromethyl)pyridazin-3(2H)-one] yielded an IC50 of at least 1000 nM. `COCC1c2ccccc2CN1c1cn[nH]c(=O)c1Cl` (stereo not shown) [Example 207, 4-Chloro-5-(1-(methoxymethyl)isoindolin-2-yl)pyridazin-3(2H)-one] showed an IC50 of at least 1000 nM. Work on `C[C@@H]1c2ccccc2CN1c1cn[nH]c(=O)c1C(F)(F)F` [Example 251, (R)-5-(1-Methylisoindolin-2-yl)-4-(trifluoromethyl)pyridazin-3(2H)-one] yielded an IC50 of at least 1000 nM. In the case of `N#Cc1cccnc1N1CCN(C(=O)c2cccc(OCC3c4ccccc4CN3c3cn[nH]c(=O)c3C(F)(F)F)c2)CC1` (stereo not shown) [Example 358, 2-(4-(3-((2-(6-Oxo-5-(trifluoromethyl)-1,6-dihydropyridazin-4-yl)isoindolin-1-yl)methoxy)benzoyl)piperazin-1-yl)nicotinonitrile], the IC50 is reported as under 100 nM. `N#Cc1ccc(N2CCN(C(=O)COCCCOc3cn[nH]c(=O)c3C(F)(F)F)CC2)nc1` [Example 517, 6-(4-(2-(3-(6-Oxo-5-(trifluoromethyl)-1,6-dihydropyridazin-4-yloxy)propoxy)acetyl)piperazin-1-yl)nicotinonitrile] gave an IC50 of under 100 nM. In the case of `O=c1[nH]ncc(N2Cc3cc(F)c(OCC4CCNCC4)cc3C2)c1C(F)(F)F` [Example 20, 5-[5-fluoro-6-(piperidin-4-ylmethoxy)-2,3-dihydro-1H-isoindol-2-yl]-4-(trifluoromethyl)-2,3-dihydropyridazin-3-one], the IC50 is reported as under 100 nM. `N#Cc1ccc(N2CCN(C(=O)COCCOCc3cccc4c3CN(c3cn[nH]c(=O)c3C(F)(F)F)C4)CC2)nc1` [Example 124, 6-(4-[2-[2-([2-[6-oxo-5-(trifluoromethyl)-1,6-dihydropyridazin-4-yl]-2,3-dihydro-1H-isoindol-4-yl]methoxy)ethoxy]acetyl]piperazin-1-yl)pyridine-3-carbonitrile] was tested, and the IC50 was under 100 nM. `N#Cc1ccc(NCCC(=O)Nc2cncc(OC[C@@H]3CCCN3c3cn[nH]c(=O)c3C(F)(F)F)c2)nc1` [Example 87, 3-[(5-cyanopyridin-2-yl)amino]-N-(5-[[(2S)-1-[6-oxo-5-(trifluoromethyl)-1,6-dihydropyridazin-4-yl]pyrrolidin-2-yl]methoxy]pyridin-3-yl)propanamide] gave an IC50 of under 100 nM. `N#Cc1cnc(N2CCN(C(=O)c3cccc(OC[C@H]4c5ccccc5CN4c4cn[nH]c(=O)c4C(F)(F)F)c3)CC2)nc1` [Example 364, (R)-2-(4-(3-((2-(6-oxo-5-(trifluoromethyl)-1,6-dihydropyridazin-4-yl)isoindolin-1-yl)methoxy)benzoyl)piperazin-1-yl)pyrimidine-5-carbonitrile] showed an IC50 of at least 1000 nM.
